One series concerns human tumor xenografts. As to conditions: nude mice; cited from earlier work.
Series [1] can be described thus: Moisture sorption/desorption (VTI SGA-100 moisture balance). It counts as physicochemical. Particulars: for hygroscopicity (in words): 5 to 95% RH; for Weight % chg: 25 deg C. The text has this:
The samples were not dried prior to analysis.

Series [2] in a line: Storage of Form B in a closed vial, XRPD pattern compared. It counts as physicochemical. As to conditions: 31 days, ambient conditions. As for the experimental part: X-ray powder diffraction analyses were carried out on a Shimadzu XRD-6000 X-ray powder diffractometer using Cu Kα radiation having a wavelength of 1.5406 Å. The instrument is equipped with a fine-focus X-ray tube. The tube power was set by setting potential difference at 40 kV, and current 40 mA. The divergence and scattering slits were set at 1° and the receiving slit was set at 0.15 mm. Diffracted radiation was detected by a NaI scintillation detector. A theta-two theta continuous scan at 3°/min (0.4 sec/0.02° step) from 2.5 to 40 °2 θ was performed. A silicon standard was analyzed each day to check the instrument alignment. Each sample was analyzed in a quartz sample holder. A variable temperature (VT-XRPD) experiment was performed on one form. The sample was prepared for analysis by pressing it into a variable temperature holder. A powder pattern was collected initially at 35° C. and again, after heating, at 200° C.

Series [3] can be described thus: Dehydration/desolvation under vacuum, XRPD compared. It counts as physicochemical.
Protocol: Dehydration/desolvation studies were conducted by placing a sample under continuous vacuum at room temperature for 14 days. An XRPD pattern was obtained on the remaining solid and compared to the starting material.
For series [4] the following is noted: cited from earlier work.
Setting [5] is: start, elapsed time 0.0 min, sample not dried.

On to `CC[C@@]1(O)C(=O)OCc2c1cc1n(c2=O)Cc2cc3c([N+](=O)[O-])cccc3nc2-1` [9-nitrocamptothecin, 9-nitro-20(S)-camptothecin], for which the “regression of human tumors established as xenografts” value in the series on human tumor xenografts was “induced regression”.

As for `CC[C@@]1(O)C(=O)OCc2c1cc1n(c2=O)Cc2cc3c([N+](=O)[O-])cccc3nc2-1` [Form A, 9-nitrocamptothecin], the “hygroscopicity (in words)” value in series [1] is listed as “not hygroscopic”. Moreover, the Weight % chg in series [1] (sorption, about 35% RH) stood at 0.0210%; in series [1] (setting [5]), 0.0000%.

In the case of `CC[C@@]1(O)C(=O)OCc2c1cc1n(c2=O)Cc2cc3c([N+](=O)[O-])cccc3nc2-1` [Form B, 9-nitrocamptothecin], the “stability of the crystalline polymorph on storage (XRPD pattern unchanged)” value in series [2] was “relatively stable”. For the same compound, in series [1], the “hygroscopicity (in words)” value is recorded as “relatively hygroscopic”. Also, the Weight % chg in series [1] (setting [5]) was determined as 0.0000%.

For `CC[C@@]1(O)C(=O)OCc2c1cc1n(c2=O)Cc2cc3c([N+](=O)[O-])cccc3nc2-1` [Form C, 9-nitrocamptothecin], in series [3], the “result of attempt to desolvate under vacuum” value is “becomes amorphous”.

As to `CC[C@@](O)(C(=O)[O-])c1cc2n(c(=O)c1CO)Cc1cc3ccccc3nc1-2.[Na+]` [Sodium camptothecin], the unpredictable side effects entry in series [4] (administered intravenously) was “myelosuppression and hemorrhagic cystitis”. Besides, the “activity in clinical trials” value in series [4] (solubilized by sodium hydroxide in water, intravenous) is recorded as “antineoplastic activity”.
